The values that follow come from PMC11834182 (Parasites & Vectors, 2025).

Like-named read-outs stand apart in the source and are kept apart here.

Series [1] deals with T1, rPpAChE1 (Phlebotomus papatasi, UniProt M1F887). In words: biochemical. The arrangement: gene AChE.
A further series has as its system CC(=O)SCC[N+](C)(C)C. The series is described as follows: cells, lysate or membranes. Conditions: pH 7.0.
The target of series [2] is T1, rPpAChE1. The series is described as follows: biochemical. Further details: gene AChE; PpAChE1 cDNA in pBlueBac4.5/V5-His, baculovirus expression in Sf21 cells, expression supernatant; species or system Sf21 (expression host).

By IC50 is commonly meant the midpoint of a concentration-inhibition curve. Low readings indicate greater potency in that assay, high ones weaker potency in that assay. `c1ccc2c(NCCCCCCCNc3c4c(nc5ccccc35)CCCC4)c3c(nc2c1)CCCC3` [bis(7)-tacrine] gave a 50% inhibitory concentration (IC50) against rPpAChE1 [1] of 0.004 µM.
As usually defined, the Km is the concentration of substrate that gives half-maximal velocity. What is called Vmax is the rate approached at saturating substrate. Consider rPpAChE1 (Phlebotomus papatasi), for which, in the series on CC(=O)SCC[N+](C)(C)C, the Km was 123 ± 25 µM and the maximum rate (Vmax) turned out to be 74 ± 6.7 µmol/min/mg.
On to `CCOC(=O)CC(SP(=O)(OC)OC)C(=O)OCC` (stereo not shown) [Maloxon], for which 0.044 µM corresponded to half-maximal inhibition against rPpAChE1 [2] (IC50).
